Converted amounts (≈) assume the structure as drawn. Bounds are passed on as bounds.

Type in all cases: functional
Assay [1] has as its system Fusarium fujikuroi. As to the kind of experiment: Antifungal activity against Fusarium fujikuroi assessed as mycelial growth inhibition at 5 ppm after 4 days relative to control. Conditions: 96 h, read-out: GI.
Assay [2] deals with Fusarium fujikuroi. Briefly: Antifungal activity against Fusarium fujikuroi assessed as mycelial growth inhibition at 2.5 ppm after 4 days relative to control. The settings on record: 96 h, read-out: GI.
Assay [3] relates to Fusarium fujikuroi. Briefly: Antifungal activity against Fusarium fujikuroi assessed as mycelial growth inhibition after 4 days. Conditions: 96 h; for EC50: read-out: ED50 (the source's name).
For assay [4], the system named is Fusarium fujikuroi. Briefly: Antifungal activity against Fusarium fujikuroi assessed as mycelial growth inhibition at 0.31 ppm after 4 days relative to control. Conditions: 96 h, read-out: GI.
For assay [5], the system named is Fusarium fujikuroi. As to the kind of experiment: Antifungal activity against Fusarium fujikuroi assessed as mycelial growth inhibition at 0.63 ppm after 4 days relative to control. The settings on record: 96 h, read-out: GI.
Assay [6] deals with Fusarium fujikuroi. As to the kind of experiment: Antifungal activity against Fusarium fujikuroi assessed as mycelial growth inhibition at 0.15 ppm after 4 days relative to control. Conditions: 96 h, read-out: GI.
For assay [7], the system named is Fusarium fujikuroi. As to the kind of experiment: Antifungal activity against Fusarium fujikuroi assessed as mycelial growth inhibition at 1.25 ppm after 4 days relative to control. Conditions: 96 h, read-out: GI.
Assay [8] relates to Fusarium fujikuroi. Briefly: Inhibition of ergosterol biosynthesis in Fusarium fujikuroi assessed as decrease in ergosterol level in total lipids measuring [2-14C]-sodium acetate incorporation at 7.35 ppm after 2 hr by liquid scintillation counting analysis (reference value: 6 to 12.3%).
Assay [9] concerns Fusarium fujikuroi. As to the kind of experiment: Antifungal activity against Fusarium fujikuroi assessed as mycelial growth inhibition at 10 ppm after 4 days relative to control. Conditions: 96 h, read-out: GI.
Assay [10] relates to Fusarium fujikuroi. As to the kind of experiment: Inhibition of ergosterol biosynthesis in Fusarium fujikuroi assessed as increase in 24-methylenedihydrolanosterol level in total lipids measuring [2-14C]-sodium acetate incorporation at 0.24 ppm after 2 hr by liquid scintillation counting analysis (reference value: 4.8 to 7.4%).
Assay [11] deals with Fusarium fujikuroi. Briefly: Inhibition of ergosterol biosynthesis in Fusarium fujikuroi assessed as increase in 24-methylenedihydrolanosterol level in total lipids measuring [2-14C]-sodium acetate incorporation at 7.35 ppm after 2 hr by liquid scintillation counting analysis (reference value: 4.8 to 7.4%).
The test system of assay [12] is Fusarium fujikuroi. As to the kind of experiment: Inhibition of ergosterol biosynthesis in Fusarium fujikuroi assessed as decrease in ergosterol level in total lipids measuring [2-14C]-sodium acetate incorporation at 0.24 ppm after 2 hr by liquid scintillation counting analysis (reference value: 6 to 12.3%).
Assay [13] concerns Fusarium fujikuroi. As to the kind of experiment: Inhibition of ergosterol biosynthesis in Fusarium fujikuroi assessed as [2-14C]-sodium acetate incorporation at 7.35 ppm after 2 hr by liquid scintillation counting analysis relative to control.
For assay [14], the system named is Fusarium fujikuroi. As to the kind of experiment: Antifungal activity against Fusarium fujikuroi assessed as mycelial growth inhibition at 40 ppm after 4 days relative to control. The settings on record: 96 h, read-out: GI.
For assay [15], the system named is Fusarium fujikuroi. Briefly: Antifungal activity against Fusarium fujikuroi assessed as mycelial growth inhibition at 20 ppm after 4 days relative to control. Conditions: 96 h, read-out: GI.
Assay [16] concerns Fusarium fujikuroi. Briefly: Inhibition of ergosterol biosynthesis in Fusarium fujikuroi assessed as [2-14C]-sodium acetate incorporation at 0.24 ppm after 2 hr by liquid scintillation counting analysis relative to control.

The term MIC denotes the smallest concentration in the dilution series that meets the test's criterion for growth inhibition. As for `C=CCCCOC(=O)C(CC)N(Cc1ccco1)C(=O)n1ccnc1` (racemic) [Pefurazoate], the inhibition of growth at 5 ppm in the assay on Fusarium fujikuroi [1] is 100%. Also, in the assay with Fusarium fujikuroi [2], the inhibition of growth at 2.5 ppm was determined as 100%. Further, in the assay on Fusarium fujikuroi [3], the MIC was 2.5 µg/mL (≈ 7.24 µM) and the EC50 came to 0.49 µg/mL (≈ 1.42 µM). Besides, in the assay on Fusarium fujikuroi [4], the inhibition of growth at 0.31 ppm came to 35%. In addition, the inhibition of growth at 0.63 ppm with Fusarium fujikuroi [5] came to 58%. Moreover, the inhibition of growth at 0.15 ppm with Fusarium fujikuroi [6] is 20%. Moreover, the inhibition of growth at 1.25 ppm with Fusarium fujikuroi [7] amounted to 75%.

Broadly, the inhibition is the percentage by which the read-out fell short of the control. As for `C=CCCCOC(=O)[C@@H](CC)N(Cc1ccco1)C(=O)n1ccnc1` [(R)-(+)-pefurazoate], in the assay on Fusarium fujikuroi [1], the inhibition of growth at 5 ppm was found to be 45%. Further, the inhibition of growth at 2.5 ppm with Fusarium fujikuroi [2] was found to be 38%. The MIC in the assay with Fusarium fujikuroi [3] was found to be 1.25 µg/mL (≈ 3.62 µM). The EC50 with Fusarium fujikuroi [3] was 7.35 µg/mL (≈ 21.3 µM). For the same compound, the results for the inhibition at 7.35 ppm in the assay on Fusarium fujikuroi [8], with Fusarium fujikuroi [11] and with Fusarium fujikuroi [13] were 1.3%, 14.2% and 47%, respectively. Further, in the assay with Fusarium fujikuroi [9], the inhibition of growth at 10 ppm is 53%. Moreover, the inhibition at 0.24 ppm in the assay with Fusarium fujikuroi [10] is 12.2%; in the assay on Fusarium fujikuroi [12], 3.2%. In the assay on Fusarium fujikuroi [14], the inhibition of growth at 40 ppm was 73%. Besides, in the assay with Fusarium fujikuroi [15], the inhibition of growth at 20 ppm was 63%. In addition, the inhibition of growth at 1.25 ppm in the assay with Fusarium fujikuroi [7] was determined as 25%.

With `C=CCCCOC(=O)[C@H](CC)N(Cc1ccco1)C(=O)n1ccnc1` [(S)-(-)-pefurazoate], the inhibition of growth at 5 ppm in the assay with Fusarium fujikuroi [1] is 100%. Also, the inhibition of growth at 2.5 ppm in the assay on Fusarium fujikuroi [2] came to 100%. Besides, in the assay on Fusarium fujikuroi [3], the minimal inhibitory concentration (MIC) was over 40 µg/mL. Further, the EC50 in the assay with Fusarium fujikuroi [3] was determined as 0.24 µg/mL (≈ 0.695 µM). The inhibition at 0.24 ppm with Fusarium fujikuroi [16] came to 87%; in the assay with Fusarium fujikuroi [10], 13.6%; in the assay with Fusarium fujikuroi [12], 0.8%. For the same compound, the inhibition of growth at 0.31 ppm in the assay on Fusarium fujikuroi [4] is 60%. For the same compound, in the assay with Fusarium fujikuroi [5], the inhibition of growth at 0.63 ppm is 78%. Also, in the assay on Fusarium fujikuroi [6], the inhibition of growth at 0.15 ppm was 35%. For the same compound, the inhibition of growth at 1.25 ppm with Fusarium fujikuroi [7] came out at 100%.

Source of the values: ChEMBL document CHEMBL3045279, “Chiral Synthesis of Pefurazoate Enantiomers and Their Antifungal Activity to Gibberella fujikuroi” (1992).
